# Test results from patent publication US9096642B2, “Therapeutic compounds for immunomodulation” (Aurigene Discovery Technologies Limited, priority 2011, dated 2015).
# System: B16F10 melanoma
# Test: B16F10 metastasis model (lung metastasis of B16F10 melanoma)
# Assay type: in vivo, C57/b16J mice
# Conditions: 5 mg/kg subcutaneously once daily; after 14 days of treatment; 0.1×10^6 B16F10 cells i.v.; versus vehicle control
# Description: In vivo Efficacy of Compound 1 on Metastasis of B16F10 Melanoma
# C57/b16J female mice (Aurigene, Bangalore, India) aged 6 to 8 weeks were used for the experiment. Animals were acclimatized for a week in the experimental room before conducting the experiment.
# Effect of Compound 001 in B16F10 Metastasis Model
# In the case of metastasis model, 0.1×10^6 B16F10 cells were injected to C57/b16J mice through i.v. Compound 001 dissolved in PBS, pH 7.4 was dosed subcutaneously at 5 mg/kg once daily. Vehicle control group of mice received only saline. Each group consisted of ten animals. Body weight and clinical signs were recorded daily. After 14 days of treatment, lung metastasis was quantitated by counting number of nodules under dissection microscope.
substance,measurement,value
Compound 001: SEQ ID NO: 3 (SNTSEFS),reduction in metastasis (lung metastasis quantitated by counting number of nodules),64%
